Reference: US20240366655A1, “COMBINATION DRUG THERAPIES” (CYBIN IRL LIMITED, priority 2021, published 2024)
Where two headings read alike, the source gives them in different places.

Key:
[1] = Plasma pharmacokinetics of co-administered DMT and DMT-d10 by intravenous (bolus), oral gavage and inhalation administration to male rats; conditions: for time of peak plasma concentration postdose: after oral administration; for mean residence time (MRT) after inhalation compared to IV administration: inhalation vs IV; for F: calculated from dose normalized AUC0-1 mean values vs Group 4 IV; for bioavailability / Tmax / half-life / AUC(0-t) / AUC0-inf / Cmax / MRT last / AUC0-1/dose / t1/2: plasma
[2] = Brain pharmacokinetics and brain to plasma ratio after IV co-administration of DMT and DMT-d10 to male rats (Group 4); assay type: in vivo, Sprague Dawley rats; conditions: for Cmax / Tmax / half-life / Kp: Sprague Dawley, rat; for Cmax / Tmax / AUC0-inf / AUC(0-t) / half-life: brain; for Cmax / Tmax / AUC0-inf / AUC(0-t): Group 4 IV bolus 1 mg/kg, male rats; for Distribution into brain: after IV co-administration; for half-life / Kp: male, 1 mg/kg; for half-life: Group 4 IV, calculated 0.25 to 1 hr; for Kp: brain / plasma, intravenous, read-out: B/P (AUC0-1), brain to plasma ratio
Description: The pharmacokinetics and bioavailability of N,N-dimethyltryptamine (DMT) and 2-(1H-indol-3-yl)-N,N-bis(methyl-d3)ethan-1-amine-1,1,2,2-d4 (DMT-d10) were investigated in rats following intravenous (bolus), oral gavage (OG), and inhalation after co-dose administration.
Sampling collection. PK samples (0.3 mL) were collected from the jugular vein by venepuncture into tubes containing K2EDTA anticoagulant at the following sampling times: Group 1 (IV) and Group 2 (oral) serial plasma collection at 0.083, 0.25, 0.5, 1, 3, 8 and 24 hr postdose; Group 4 (IV) composite plasma and brain collection at 0.083, 0.25, 0.5 and […]; Group 6 (inhalation) serial plasma collection at 0.333, 0.533, 0.833, 1.333, 3.333, 8.333 and 24.333 after start of inhalation.
Brain samples: After extraction of whole brain from the cranium, brains were rinsed, patted dry, weighed, placed into tubes and frozen on dry ice. Thereafter, they were stored at −70 (10°) C pending analysis.
Bioanalysis. Plasma and brain homogenates were analyzed for DMT and DMT-d10 using an established LC-MS/MS assay.) Pharmacokinetic parameters were determined from the DMT and DMT-d10 plasma and brain concentration-time profiles using commercially available software (Phoenix® WinNonlin®).

[3] = molecular target: T1, serotonin 5-HT2A receptor (Mus musculus, UniProt P35363); conditions: 1 mg/kg dose, intraperitoneal, rats and mice; cited from earlier work
T1 construct: endogenous in cells; host or cells: living mice (in vivo behavioural assay); receptor endogenous to the animal
T1 sequence (P35363 whole entry): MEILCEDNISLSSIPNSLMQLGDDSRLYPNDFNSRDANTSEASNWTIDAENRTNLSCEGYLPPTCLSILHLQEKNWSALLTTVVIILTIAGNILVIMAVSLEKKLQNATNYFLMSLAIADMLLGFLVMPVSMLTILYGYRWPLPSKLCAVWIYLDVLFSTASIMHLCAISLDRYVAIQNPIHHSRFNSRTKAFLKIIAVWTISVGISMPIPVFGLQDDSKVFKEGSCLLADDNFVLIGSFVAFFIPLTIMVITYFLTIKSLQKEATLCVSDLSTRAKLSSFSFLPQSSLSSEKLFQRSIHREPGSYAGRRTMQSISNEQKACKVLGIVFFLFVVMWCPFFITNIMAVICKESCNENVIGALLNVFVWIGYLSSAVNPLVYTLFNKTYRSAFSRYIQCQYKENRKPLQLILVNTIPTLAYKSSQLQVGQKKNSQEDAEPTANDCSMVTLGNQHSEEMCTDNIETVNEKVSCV

[4] = rats, following intraperitoneal injection; cited from earlier work
[5] = cited from earlier work
[6] = Experiment 6: blood neurotrophic and endocrine biomarkers after DMT+N2O in healthy human participants; conditions: DMT 0.1, 0.2, 0.4 mg/kg
Description: General experimental design. The proposed studies aim to define proof-of-concept synergistic interactions of inhalational DMT fumarate with N2O, or IV DMT fumarate administered as a bolus over 30 seconds. Healthy adult participants will be exposed to either inhalational DMT in 20-25% N2O in oxygen as the carrier gas, or inhalational DMT in oxygen alone as the carrier gas in a blinded manner, or IV DMT while inhaling 20-25% N2O in oxygen, or oxygen.
Pre-study: Baseline measurements of heart rate, body temperature and blood pressure will be made. An IV cannula will be inserted into a forearm vein for blood sampling and to allow administration of DMT as a bolus in the IV condition. Participants will be allowed to relax for 30 min before the drug session. Study session: Participants will receive administration of either 20-25% N2O in oxygen, or oxygen alone, for 10 minutes prior to the administration of a high, medium or low dose of inhalational or IV DMT (0.4, 0.2, 0.1 mg/kg) over the course of 30 sec-1 minute. […]
Baseline blood samples will be drawn 30 minutes before N2O or oxygen administration, and after 8 mins of N2O or oxygen administration for endocrine markers of HPA axis activation: corticotropin, β-endorphin, prolactin, GH and cortisol levels. Further blood samples will be drawn, and vital signs measured 2, 15, 60 and 120 minutes after DMT administration. […]

[7] = inhalation, DMT 15.3 mg/kg, DMT-d10 14.7 mg/kg
[8] = male, Sprague Dawley, rat, inhaled
[9] = male, Sprague Dawley, rat, inhaled or intranasal
[10] = male, Sprague Dawley, rat, inhaled or intranasal, AUC0-1, plasma, Group 6 inhalation, DMT 15.3 mg/kg, DMT-d10 14.7 mg/kg
[11] = male, Sprague Dawley, rat, inhaled or intranasal, AUC0-1, plasma, inhalation, DMT 15.3 mg/kg, DMT-d10 14.7 mg/kg (summary table)
[12] = male, Sprague Dawley, rat, inhaled or intranasal, AUC0-t, Group 6 inhalation, DMT 15.3 mg/kg, DMT-d10 14.7 mg/kg
[13] = male, Sprague Dawley, rat, iv, 1 mg/kg
[14] = male, Sprague Dawley, rat, iv, 1 mg/kg, AUC0-1, plasma, 1 mg/kg (summary table)
[15] = male, Sprague Dawley, rat, iv, 1 mg/kg, AUC0-1, plasma, Group 4 IV bolus, 1 mg/kg, male rats
[16] = male, Sprague Dawley, rat, iv, 1 mg/kg, AUC0-t, Group 4 IV bolus, 1 mg/kg, male rats
[17] = male, Sprague Dawley, rat, po, 10 mg/kg
[18] = male, Sprague Dawley, rat, po, 10 mg/kg, AUC0-1, plasma, 10 mg/kg (summary table)
[19] = male, Sprague Dawley, rat, po, 10 mg/kg, AUC0-1, plasma, Group 2 oral gavage (OG), 10 mg/kg, male rats
[20] = male, Sprague Dawley, rat, po, 10 mg/kg, AUC0-t, Group 2 oral gavage (OG), 10 mg/kg, male rats
[21] = inhalation, calculated 0.333 to 3.333 hr (summary table)
[22] = intravenous 1 mg/kg, calculated 0.083 to 1.0 hr (summary table)
[23] = human, IV bolus of DMT (as fumarate salt), 0.05-0.4 mg/kg

CN(C)CCc1c[nH]c2ccccc12 [DMT, N,N-dimethyltryptamine]
time of highest plasma concentration (first time point taken) ([1]; after IV bolus): 0.083 h
time of highest plasma concentration (first time point taken) ([1]; after inhalation): 0.333 h
time of peak plasma concentration postdose [1]: 1 h
mean residence time (MRT) after inhalation compared to IV administration [1]: approximately 2 ×
F [1, 7]: 15.3%
bioavailability [1, 8]: 15.3%
Tmax [1, 9]: 20 min
half-life [1, 9]: 19.7 min
AUC(0-t) [1, 10]: 265 ng·h/mL
AUC(0-t) [1, 11]: 265 ng·h/mL
AUC(0-t) [1, 12]: 300 ng·h/mL
AUC0-inf [1, 13]: 115 ng·h/mL
Cmax [1, 13]: 314 ng/mL
MRT last [1, 13]: 13.6 min
half-life [1, 13]: 10.1 min
AUC(0-t) [1, 14]: 113 ng·h/mL
AUC(0-t) [1, 15]: 113 ng·h/mL
AUC(0-t) [1, 16]: 113 ng·h/mL
Cmax [1, 17]: 28 ng/mL
MRT last [1, 17]: 172 min
Tmax [1, 17]: 60 min
bioavailability [1, 17]: 1.2%
AUC(0-t) [1, 18]: 13.7 ng·h/mL
AUC(0-t) [1, 19]: 13.7 ng·h/mL
AUC(0-t) [1, 20]: 65 ng·h/mL
F ([1]; oral gavage 10 mg/kg): 1.2%
AUC0-1/dose [1, 7]: 17.3
t1/2 [1, 21]: 19.7 min
t1/2 [1, 22]: 10.1 min
AUC0-1/dose ([1]; intravenous, 1 mg/kg): 113
AUC0-1/dose ([1]; oral, 10 mg/kg): 1.37
Cmax [2]: 3430 ng/g
Tmax [2]: 5 min
Distribution into brain [2]: high
AUC0-inf [2]: 1070 ng·h/g
AUC(0-t) [2]: 1060 ng·h/g
half-life [2]: 9.3 min
Kp [2]: 9
hallucinogenic effect as measured by head-twitch responses (HTRs) [3]: sub-hallucinogenic
half-life [4]: 5 to 15 min
time to be metabolized and cleared from brain, liver, and plasma [4]: ≤ 1 h
half-life ([5]; administered intravenously): around 15 minutes
time to peak plasma concentrations ([5]; administered intravenously): approximately 2 minutes
subjective effects ([5]; human, 0.1 mg/kg IV): not hallucinogenic
subjective effects ([5]; human, 0.2 and 0.4 mg/kg IV): nearly instantaneous onset of visual hallucinatory phenomena, bodily dissociation, and extreme shifts in mood
peak of psycho-biological effects after administration [5, 23]: 120 seconds
time by which psycho-biological effects resolve [5, 23]: ≤ 30 minutes
duration of effect ([5]; vaporized DMT): less than 30 min
levels of VEGF and BDNF in blood [6]: dose-dependently increased levels

[2H]C([2H])([2H])N(C([2H])([2H])[2H])C([2H])([2H])C([2H])([2H])c1c[nH]c2ccccc12 [DMT-d10, 2-(1H-indol-3-yl)-N,N-bis(methyl-d3)ethan-1-amine-1,1,2,2-d4]
increase of inhalation bioavailability by deuteration ([1]; DMT-d10 vs. DMT): approximately 60%
time of highest plasma concentration (first time point taken) ([1]; after IV bolus): 0.083 h
time of highest plasma concentration (first time point taken) ([1]; after inhalation): 0.333 h
time of peak plasma concentration postdose [1]: 1 h
mean residence time (MRT) after inhalation compared to IV administration [1]: approximately 2 ×
F [1, 7]: 24.3%
bioavailability [1, 8]: 24.3%
Tmax [1, 9]: 20 min
half-life [1, 9]: 23.7 min
AUC(0-t) [1, 10]: 267 ng·h/mL
AUC(0-t) [1, 11]: 267 ng·h/mL
AUC(0-t) [1, 12]: 361 ng·h/mL
AUC0-inf [1, 13]: 92.6 ng·h/mL
Cmax [1, 13]: 148 ng/mL
MRT last [1, 13]: 20.9 min
half-life [1, 13]: 26.5 min
AUC(0-t) [1, 14]: 74.6 ng·h/mL
AUC(0-t) [1, 15]: 74.6 ng·h/mL
AUC(0-t) [1, 16]: 74.6 ng·h/mL
Cmax [1, 17]: 20.8 ng/mL
MRT last [1, 17]: 221 min
Tmax [1, 17]: 60 min
bioavailability [1, 17]: 1.2%
AUC(0-t) [1, 18]: 8.78 ng·h/mL
AUC(0-t) [1, 19]: 8.78 ng·h/mL
AUC(0-t) [1, 20]: 77.2 ng·h/mL
F ([1]; oral gavage 10 mg/kg): 1.2%
Cmax ([1]; Group 4 IV bolus, 1 mg/kg, male rats): 148 ng/mL
AUC0-1/dose [1, 7]: 18.2
t1/2 [1, 21]: 23.7 min
t1/2 [1, 22]: 26.5 min
AUC0-1/dose ([1]; intravenous, 1 mg/kg): 74.6
AUC0-1/dose ([1]; oral, 10 mg/kg): 0.878
improvement of brain to plasma (B/P) ratio by deuteration ([2]; DMT-d10 vs. DMT, IV): approximately 50%
Cmax [2]: 1490 ng/g
Tmax [2]: 5 min
Distribution into brain [2]: high
AUC0-inf [2]: 1290 ng·h/g
AUC(0-t) [2]: 931 ng·h/g
half-life [2]: 33.9 min
Kp [2]: 14
